Read-outs that look alike come from different tables or passages of the source.
Legend:
HIV-1LPV5μM = assay: microbe, parasite or virus in culture; type: cell-based; settings: for EC50: Human immunodeficiency virus 1, MT4, read-out: EC50 (μM), HIV-1LPV5 μM; for n-fold change in EC50, HIV-1LPV5 μM: compared to wild-type HIV-1NL4-3
Procedure: (§1) The susceptibility of HIV-1LAI and primary HIV-1 isolates to various drugs were determined as described previously (Koh et al. 2003 Antimicrob Agents Chemother 47:3123-9). Briefly, MT-2 cells (2×10^4/ml) were exposed to 100 50% tissue culture infectious doses (TCID50S) of HIV-1LAI, in the presence or absence of various concentrations of drugs in 96-well microculture plates and were incubated at 37° C. for 7 days. After 100 μl of the medium was removed from each well, 3-(4,5-dimetylthiazol-2-yl)-2,5-diphenyltetrazolium bromide (MTT) solution (10 μl, 7.5 mg/ml in phosphate-buffered saline) was added to each well in the plate, followed by incubation at 37° C. for 3 h. […] All assays were performed in duplicate or triplicate. To determine the susceptibility of primary HIV-1 isolates to drugs, phytohemagglutinin-activated peripheral blood mononuclear cells (PHA-PBMCs; 106/ml) were exposed to 50 TCID50S of each. The target cells were exposed to HIV-1104pre or drug-resistant HIV-1 in the presence or absence of various concentrations of drugs and were incubated for 7 days. Upon the conclusion of the culture, the amounts of p24 Gag protein in the supernatants were determined using a fully automated chemiluminescent enzyme immunoassay system (Lumipulse F; Fujirebio Inc., Tokyo, Japan) (Maeda et al. 2001 J Biol Chem 276:35194-200). To determine the drug susceptibility of certain laboratory HIV-1 strains, MT-4 cells were used as target cells. In brief, MT-4 cells (10^5/ml) were exposed to 100 TCID50S of drug-resistant HIV-1 strains in the presence or absence of various concentrations of drugs and on day 7 of culture, the supernatant was harvested and the amounts of p24 Gag protein were determined. […] All assays were performed in duplicate or triplicate.
(§2) Numbers in parentheses represent n-fold changes in EC50s for each isolate compared to the EC50s for wild-type HIV-1NL4-3.

HIV-1APV5μM = assay: microbe, parasite or virus in culture; type: cell-based; settings: for EC50: Human immunodeficiency virus 1, MT4, read-out: EC50 (μM), HIV-1APV5 μM; for n-fold change in EC50, HIV-1APV5 μM: compared to wild-type HIV-1NL4-3
Procedure: as §1, §2

HIV-1MDR/MM = assay: microbe, parasite or virus in culture; type: cell-based; settings: for EC50: Human immunodeficiency virus 1, read-out: EC50 (μM), HIV-1MDR/MM (NSI); for n-fold change of EC50, HIV-1MDR/MM: compared to wild-type HIV-1ERS104pre
Procedure: as §1
(§3) These clinical strains contained 9 to 14 amino acid substitutions in the protease-encoding region, which have reportedly been associated with HIV-1 resistance to various PIs.
(§4) Amino acid substitutions identified in the protease-encoding region compared to the consensus type B sequence cited from the Los Alamos database include L63P in HIV-1ERS104pre; L10I, K14R, L33I, M36I, M46I, F53I, K55R, I62V, L63P, A71V, G73S, V82A, L90M, and I93L in HIV-1MDR/B; L10I, I15V, K20R, L24I, M36I, M46L, I54V, I62V, L63P, K70Q, V82A, and L89M in HIV-1MDR/C; L10I, V11I, T12E, I15V, L19I, R41K, M46L, L63P, A71T, V82A, and L90M in HIV-1MDR/G; L10I, K14R, R41K, M46L, I54V, L63P, A71V, V82A, L90M, I93L in HIV-1MDR/TM; L10I, K43T, M46L, I54V, L63P, A71V, V82A, L90M, and Q92K in HIV-1MDR/MM; L10I, L24I, I33F, E35D, M36I, N37S, M46L, I54V, R57K, I62V, L63P, A71V, G73S, and V82A in HIV-1MDR/JSL. HIV-1ERS104pre served as a source of wild-type HIV-1. EC50s were determined by using PHA-PBMs as target cells, and inhibition of p24 Gag protein production by each drug was used as an end point. Numbers in parentheses represent n-fold changes of EC50s for each isolate compared to EC50s for wild-type HIV-1ERS104pre.

HIV-1MDR/JSL = assay: microbe, parasite or virus in culture; type: cell-based; settings: for EC50: Human immunodeficiency virus 1, read-out: EC50 (μM), HIV-1MDR/JSL (NSI); for n-fold change of EC50, HIV-1MDR/JSL: compared to wild-type HIV-1ERS104pre
Procedure: as §1, §3, §4

HIV-1NL4-3 = assay: p24 Gag inhibition in MT-4 cells, HIV-1NL4-3; type: cell-based
Procedure: All assays were performed in duplicate or triplicate. […] All assays were performed in duplicate or triplicate.

HIV-1246-1μM = assay: microbe, parasite or virus in culture; type: cell-based, HIV-1; settings: for EC50: Human immunodeficiency virus 1, MT4, read-out: EC50 (μM), HIV-1246-1 μM; for n-fold change in EC50, HIV-1246-1 μM: compared to wild-type HIV-1NL4-3
Procedure: (§5) Briefly, MT-2 cells (2×10^4/ml) were exposed to 100 50% tissue culture infectious doses (TCID50S) of HIV-1LAI, in the presence or absence of various concentrations of drugs in 96-well microculture plates and were incubated at 37° C. for 7 days. After 100 μl of the medium was removed from each well, 3-(4,5-dimetylthiazol-2-yl)-2,5-diphenyltetrazolium bromide (MTT) solution (10 μl, 7.5 mg/ml in phosphate-buffered saline) was added to each well in the plate, followed by incubation at 37° C. for 3 h. […] All assays were performed in duplicate or triplicate. […] To determine the drug susceptibility of certain laboratory HIV-1 strains, MT-4 cells were used as target cells. In brief, MT-4 cells (10^5/ml) were exposed to 100 TCID50S of drug-resistant HIV-1 strains in the presence or absence of various concentrations of drugs and on day 7 of culture, the supernatant was harvested and the amounts of p24 Gag protein were determined. […] All assays were performed in duplicate or triplicate.
as §2

HIV-1286-1μM = assay: microbe, parasite or virus in culture; type: cell-based, HIV-1; settings: for EC50: Human immunodeficiency virus 1, MT4, read-out: EC50 (μM), HIV-1286-1 μM; for n-fold change in EC50, HIV-1286-1 μM: compared to wild-type HIV-1NL4-3
Procedure: as §5, §2

HIV-1396-1μM = assay: microbe, parasite or virus in culture; type: cell-based, HIV-1; settings: for EC50: Human immunodeficiency virus 1, MT4, read-out: EC50 (μM), HIV-1396-1 μM; for n-fold change in EC50, HIV-1396-1 μM: compared to wild-type HIV-1NL4-3
Procedure: as §5, §2

HIV-1216-P50 = assay: microbe, parasite or virus in culture; type: cell-based, HIV-1; settings: for EC50: Human immunodeficiency virus 1, MT4, read-out: EC50 (μM), HIV-1216-p50; for n-fold change in EC50, HIV-1216-p50: compared to wild-type HIV-1NL4-3
Procedure: as §5, §2

[1] = Human immunodeficiency virus 1, MT4, read-out: EC50 (μM), HIV-1NL4-3, Table 7, mean ± 1 SD
[2] = Human immunodeficiency virus 1, MT4, read-out: EC50 (μM), HIV-1NL4-3, Table 9, mean ± 1 SD
[3] = Human immunodeficiency virus 1, MT4, Table 7, mean ± 1 SD, read-out: EC50 (μM), HIV-1NL4-3
[4] = Human immunodeficiency virus 1, MT4, Table 9, mean ± 1 SD, read-out: EC50 (μM), HIV-1NL4-3

SMILES | EC50 (HIV-1LPV5μM) [µM] | n-fold change in EC50, HIV-1LPV5 μM (HIV-1LPV5μM) | EC50 (HIV-1APV5μM) [µM] | n-fold change in EC50, HIV-1APV5 μM (HIV-1APV5μM) | EC50 (HIV-1MDR/MM) [µM] | n-fold change of EC50, HIV-1MDR/MM (HIV-1MDR/MM) | EC50 (HIV-1MDR/JSL) [µM] | EC50 (HIV-1NL4-3; [1]) [µM] | EC50 (HIV-1NL4-3; [2]) [µM] | EC50 (HIV-1246-1μM) [µM] | n-fold change in EC50, HIV-1246-1 μM (HIV-1246-1μM) | EC50 (HIV-1286-1μM) [µM] | n-fold change in EC50, HIV-1286-1 μM (HIV-1286-1μM) | EC50 (HIV-1396-1μM) [µM] | n-fold change in EC50, HIV-1396-1 μM (HIV-1396-1μM) | EC50 (HIV-1216-P50) [µM] | n-fold change in EC50, HIV-1216-p50 (HIV-1216-P50) | n-fold change of EC50, HIV-1MDR/JSL (HIV-1MDR/JSL) | EC50 (HIV-1NL4-3; [3]) [µM] | EC50 (HIV-1NL4-3; [4]) [µM]
COc1ccc2c(c1)OCCCC=CCCCCN(CC(O)C(Cc1ccccc1)NC(=O)OC1COC3OCCC13)S2(=O)=O (stereo not shown) [Compound 14b] | 0.35 ± 0.019 | (39) | > 1 | > 111 | 0.055 ± 0.025 | (8) | 0.21 ± 0.032 | 0.009 ± 0.0006 | 0.006 ± 0.005 | 0.33 ± 0.03 | (55) | > 1 | > 167 | 0.25 ± 0.05 | (42) | 0.19 ± 0.06 | (32) |  |  | 
COC(=O)N[C@H](C(=O)N[C@@H](Cc1ccccc1)[C@@H](O)CN(Cc1ccc(-c2ccccn2)cc1)NC(=O)[C@@H](NC(=O)OC)C(C)(C)C)C(C)(C)C [AZV, Atazanavir] | 0.036 ± 0.001 | (9) | 0.006 ± 0.002 | (2) | 0.18 ± 0.021 | (39) | 0.43 ± 0.036 | 0.004 ± 0.0004 | 0.0032 ± 0.0001 | 0.032 ± 0.003 | (10) | 0.021 ± 0.012 | (7) | 0.024 ± 0.002 | (8) | 0.014 ± 0.003 | (4) | (215) |  | 
Cc1cccc(C)c1OCC(=O)N[C@@H](Cc1ccccc1)[C@@H](O)C[C@H](Cc1ccccc1)NC(=O)[C@H](C(C)C)N1CCCNC1=O [LPV, lopinavir] | > 1 | > 22 | > 1 | > 22 | > 1 | > 29 | > 1 |  |  | 0.33 ± 0.04 | (8) | > 1 | > 23 | 0.28 ± 0.05 | (6) | 0.19 ± 0.06 | (5) | > 29 | 0.046 ± 0.025 | 0.035 ± 0.004
CC(C)CN(C[C@@H](O)[C@H](Cc1ccccc1)NC(=O)O[C@H]1CCOC1)S(=O)(=O)c1ccc(N)cc1 [APV, Amprenavir] | 0.26 ± 0.07 |  | > 1 |  | 0.21 ± 0.222 |  | 0.62 ± 0.02 |  |  | 0.34 ± 0.015 |  | > 1 |  | 0.35 ± 0.0002 |  | 0.26 ± 0.03 |  |  | 0.034 ± 0.001 | 0.032 ± 0.001
CCC[C@@]1(CCc2ccccc2)CC(O)=C([C@H](CC)c2cccc(NS(=O)(=O)c3ccc(C(F)(F)F)cn3)c2)C(=O)O1 [TPV, Tipranavir] | 0.31 ± 0.03 | (1) | 0.22 ± 0.089 | (0.7) | 0.36 ± 0.06 | (3) | 0.23 ± 0.049 | 0.32 ± 0.07 | 0.29 ± 0.05 | 0.095 ± 0.089 | (0.3) | 0.037 ± 0.001 | (0.1) | 0.042 ± 0.002 | (0.1) | 0.029 ± 0.0004 | (0.1) | (2) |  | 
COc1ccc2c(c1)OCCC=CCCCCN(CC(O)C(Cc1ccccc1)NC(=O)OC1COC3OCCC13)S2(=O)=O (stereo not shown) [Compound 14c] | 0.035 ± 0.005 |  | > 1 |  | 0.033 ± 0.01 |  | 0.073 ± 0.07 | 0.005 ± 0.001 | 0.004 ± 0.001 | 0.3 ± 0.01 |  | > 1 |  | 0.073 ± 0.011 |  | 0.094 |  |  |  | 

— patent publication US9617276B2, “Compounds and methods for treating AIDS and HIV infections” (priority 2009, dated 2017)
